Assays:
[1] = system: testicular steroidogensis; assay: Inhibitory activity against testicular steroidogenesis in men in good health, single intranasal administration; assay type: in vivo; conditions: for seric steroid/testosterone level on the fourth day after administration: fourth day (until 6th day)
Procedure: The inhibitory activity of [D Ser (tbu)^6 des GlyNH2^10 ] LH-RH ethylamide (described in German application Ser. No. 2,438,350) against testicular steroidogensis in men in good health was determined on men in good health aged 30 to 40 years. The said product was administered intranasally at a dose of 500 μg in a few drops of distilled water at 8 A.M. on the third day of the test. For 2 days prior to the treatment and for 6 days after the treatment, samples of blood were taken daily at 8 A.M., 3 P.M. and 10 P.M. On the day of administration of the LH--RH agonist, blood samples were taken at 11 A.M. and 6 P.M.
The seric concentrations of LH and FSH were measured by radioimmuno-logic dosages with double antibodies and the antibodies for measuring LH and FSH were furnished by the National Pituitary Agency of N.I.H. in Bethesda, Md. The seric concentrations of steroids was measured by radioimmuno-logic dosages in which one ml of serum was extracted with ether and the steroids were separated on a LH-20 column before measuring with radioimmuno-logic dosages. The radioimmuno-logic dosage results were determined by a program derived from model II of Rodbard et al [Second Karolinska Symposium on Research Methods in Reproductive Endrocinology, Diczfalusky Editor, Copenhague (1970), p. 79-103]. The statistical significance was determined by the "multiple level test" of Duncan-Kramer [Kramer, Biometrics, Vol 12 (1956), p. 307]. The results are shown in the graphs on sheet 1 of the Figures filed herewith.

[2] = system: ovarian steroidogenosis; assay: Inhibitory activity on ovarian steroidogenesis in women with normal menstrual cycles; assay type: in vivo
Procedure: The inhibitory activity of [D Ser (tbu)^6 des GlyNH2^10 ] LH-RH ethylamide on ovarian steroidogenosis in women was determined on 6 women aged 26 to 35 years with normal and regular menstrual cycles and without prior endocrinal or gynecological problems. The study was conducted for 6 consecutive cycles consisting of 2 pretreatment cycles, 2 treatment cycles and 2 post-treatment cycles. Two drops of a solution containing 500 μg of [D Ser (tbu)^6 des GlyNH2^10 ] LH--RH ethylamide were deposited on each nostril at 8 A.M. and 5 P.M. of a day between the 4th and 9th day after the peak of LH-day 0. Daily blood samples were taken between 4 and 6 P.M. to measure seric levels of LH, FSH, progesterone and estradiol which were determined by radioimmuno-logictests with double antibodies. The antibodies to measure LH and FSH were furnished by the National Pituitory Agency of N.I.H. of Bethesda, Md.
Estradiol and progesterone were measured with highly specific antibodies developed against 7-(O-carboxymethyl)-oxime of estradiol and 12-(O-carboxymethyl)-oxime of progesterone, respectively [3H] 17β-estradiol and ^125 I-progesterone-12-[O-carboxymethyl)-oxime]used as tracers. The serum was extracted with benzene and the steroids were separated with a LH-20 column before the determination. The radioimmunological results were exploited by the program derived from model II of Rodbard and Lewald as in Example 1 and the statistical significance was measured by the multiple level test of Ducan-Kramer of Example 1. The results are shown in the graphs of sheets 3 to 5 of the Figures.

[3] = human, single intranasal dose 500 μg
[4] = 500 μg intranasal at 8 A.M. and 5 P.M. of one day in luteal phase, typical subject (sheet 3)

## CCNC(=O)[C@@H]1CCCN1C(=O)[C@H](CCCNC(=N)N)NC(=O)[C@H](CC(C)C)NC(=O)[C@@H](COC(C)(C)C)NC(=O)[C@H](Cc1ccc(O)cc1)NC(=O)[C@H](CO)NC(=O)[C@H](Cc1c[nH]c2ccccc12)NC(=O)[C@H](Cc1c[nH]cn1)NC(=O)[C@@H]1CCC(=O)N1 [[D Ser (tbu)^6 des GlyNH2^10] LH-RH ethylamide]
[1]; [3]
  duration of the drop of seric levels of testicular steroids (testosterone and precursors): 3 days
  seric steroid/testosterone level on the fourth day after administration: return to normal levels
[1]; human, single intranasal dose 500 μg, listed as [D Ser (tbu)^6 des Gly NH2^10 ] LH-RH ethylamide
  seric steroid/testosterone level on the fourth day after administration: the level returned to normal
[1]; man, intranasal 500 μg
  overall effect on testicular steroidogenesis: inhibition of testicular steroidogenesis
[2]; [4]
  reduction of seric levels of progesterone compared to controls, first cycle of treatment: 13%
  reduction of seric levels of progesterone compared to controls, second cycle of treatment: 34%
[2]; 12 cycles
  progesterone level of post-treatment cycles, pretreatment cycles = 100%: 99%
  progesterone level of treatment cycles, pretreatment cycles = 100%: 46%
[2]; 12 cycles, sheet 5
  level of progesterone reduced by, compared to the controls: 46%
[2]; sheet 4, return to normal for the 2 post-treatment cycles
  course of seric progesterone level in the 2 cycles of treatment: accelerated diminution

Reference: patent publication US4851386A, “Method of treating precocious puberty” (Roussel Uclaf, priority 1979, dated 1989)
